Experimental data as given in PubChem BioAssay AID248 (DTP/NCI, 2004).
Where “and” joins values, the source holds several entries; their conditions need not be identical. Equal entries are not always repeated. Inconclusive results and toxic doses are left out. Cut-off read from the data, not from the text of the source: active = T/C of 150% or more; inactive = T/C below 125%.

Tested on: L1210 leukemia ip in BDF1 mice, survival T/C
Test: NCI In Vivo Anticancer Drug Screen. Data for tumor model L1210 Leukemia (intraperitoneal) in B6D2F1 (BDF1) mice
Settings: endpoint: mean survival time, higher = longer survival
How it was run: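 Tumor was transplanted into mice, which were then dosed with test compound or vehicle alone. Survival was recorded for each group, and the treated figure was expressed relative to the control figure.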

[1] = dose: 100.0 mg/kg/injection, schedule: Q04DX003 (ip), vehicle: saline with Tween-80
[2] = dose: 200.0 mg/kg/injection, schedule: Q01DX001 (ip), vehicle: saline
[3] = dose: 100.0 mg/kg/injection, schedule: Q04DX003 (ip), vehicle: saline
[4] = dose: 200.0 mg/kg/injection, schedule: Q04DX003 (ip), vehicle: saline
[5] = dose: 400.0 mg/kg/injection, schedule: Q04DX003 (ip), vehicle: saline
[6] = dose: 24.0 mg/kg/injection, schedule: Q01DX009 (ip), vehicle: steriod suspending solution
[7] = dose: 100.0 mg/kg/injection, schedule: Q04DX003 (ip), vehicle: Klucel (hydroxypropylcellulose) (HPC)
[8] = dose: 200.0 mg/kg/injection, schedule: Q04DX003 (ip), vehicle: Klucel (hydroxypropylcellulose) (HPC)
[9] = dose: 400.0 mg/kg/injection, schedule: Q04DX003 (ip), vehicle: Klucel (hydroxypropylcellulose) (HPC)
[10] = dose: 100.0 mg/kg/injection, schedule: Q01DX001 (ip), vehicle: Klucel (hydroxypropylcellulose) (HPC)
[11] = dose: 200.0 mg/kg/injection, schedule: Q01DX001 (ip), vehicle: Klucel (hydroxypropylcellulose) (HPC)
[12] = dose: 400.0 mg/kg/injection, schedule: Q01DX001 (ip), vehicle: Klucel (hydroxypropylcellulose) (HPC)

Measured: T/C

Nc1ncnc2c1ncn2C1OC(CO)C(O)C1O.[Cl][Pt][Cl] (configuration not stated)
inactive: dose: 100.0 mg/kg/injection, schedule: Q01DX009 (ip), vehicle: water 97 % of control | dose: 100.0 mg/kg/injection, schedule: Q04DX003 (ip), vehicle: water 94 % of control | dose: 200.0 mg/kg/injection, schedule: Q01DX009 (ip), vehicle: water 103 % of control | dose: 200.0 mg/kg/injection, schedule: Q04DX003 (ip), vehicle: water 97 % of control | dose: 400.0 mg/kg/injection, schedule: Q01DX009 (ip), vehicle: water 100 % of control | dose: 400.0 mg/kg/injection, schedule: Q04DX003 (ip), vehicle: water 94 % of control

CC1(C)N=C(N)N=C(N)N1c1ccccc1
inactive: dose: 12.0 mg/kg/injection, schedule: Q01DX009 (ip), vehicle: saline 104 % of control | dose: 12.0 mg/kg/injection, schedule: Q04DX003 (ip), vehicle: saline 97 % of control | dose: 25.0 mg/kg/injection, schedule: Q01DX009 (ip), vehicle: saline 99 % of control | dose: 25.0 mg/kg/injection, schedule: Q04DX003 (ip), vehicle: saline 101 % of control | dose: 50.0 mg/kg/injection, schedule: Q01DX009 (ip), vehicle: saline 98 % of control

CC[N+](C)(CC)/N=C(\C)c1ccccc1
inactive: [1] 105 % of control

Cc1c([N+](=O)[O-])cc(NC(=O)/C=C\C(=O)O)cc1[N+](=O)[O-]
inactive: [1] 113 % of control | dose: 200.0 mg/kg/injection, schedule: Q04DX003 (ip), vehicle: saline with Tween-80 113 % of control | dose: 400.0 mg/kg/injection, schedule: Q04DX003 (ip), vehicle: saline with Tween-80 109 % of control

CCOC(=N)c1cn(C2OC(CO)C(O)C2O)c2ncnc(N)c12 (configuration not stated)
inactive: dose: 0.12 mg/kg/injection, schedule: Q01DX009 (ip), vehicle: saline with Tween-80 120 % of control | dose: 0.12 mg/kg/injection, schedule: Q01DX009 (ip), vehicle: saline 109 % of control | dose: 0.18 mg/kg/injection, schedule: Q01DX009 (ip), vehicle: saline with Tween-80 120 % of control | dose: 0.18 mg/kg/injection, schedule: Q01DX009 (ip), vehicle: saline 123 % of control | dose: 0.27 mg/kg/injection, schedule: Q01DX009 (ip), vehicle: saline with Tween-80 117 % of control | dose: 0.27 mg/kg/injection, schedule: Q01DX009 (ip), vehicle: saline 121 % of control | dose: 0.6 mg/kg/injection, schedule: Q01DX009 (ip), vehicle: saline 118 % of control | dose: 0.9 mg/kg/injection, schedule: Q01DX009 (ip), vehicle: saline 112 % of control | dose: 1.3 mg/kg/injection, schedule: Q01DX009 (ip), vehicle: saline 96 % of control

CCCOC(=O)NNC(=O)OCCC
inactive: dose: 75.0 mg/kg/injection, schedule: Q01DX009 (ip), vehicle: Klucel (hydroxypropylcellulose) (HPC) 93 % of control

ClCCOc1ccccc1
inactive: dose: 100.0 mg/kg/injection, schedule: Q01DX001 (ip), vehicle: saline 95 % of control | [2] 101 % of control

Cc1ccc(C)c(Nc2nc(Cl)nc3ncn(C)c23)c1
inactive: dose: 100.0 mg/kg/injection, schedule: Q01DX001 (ip), vehicle: other 103 % of control | dose: 100.0 mg/kg/injection, schedule: Q04DX003 (ip), vehicle: other 102 % of control | dose: 200.0 mg/kg/injection, schedule: Q01DX001 (ip), vehicle: other 90 % of control | dose: 200.0 mg/kg/injection, schedule: Q04DX003 (ip), vehicle: other 117 % of control | dose: 400.0 mg/kg/injection, schedule: Q01DX001 (ip), vehicle: other 94 % of control | dose: 400.0 mg/kg/injection, schedule: Q04DX003 (ip), vehicle: other 110 % of control

Cc1ccc(S(=O)(=O)N2CCCCC2)cc1
inactive: [3] 91 % of control | [4] 96 % of control | [5] 97 % of control

C=CCn1c(-c2cccs2)nc2c(Cl)ncnc21
inactive: [6] 88 % of control | dose: 39.0 mg/kg/injection, schedule: Q01DX009 (ip), vehicle: steriod suspending solution 90 % of control

O=C(O)c1ccccc1C(=O)Nc1ccc(F)cc1
inactive: [7] 103 % of control | [2] 106 % of control | [8] 87 % of control | dose: 400.0 mg/kg/injection, schedule: Q01DX001 (ip), vehicle: saline 96 % of control | [9] 94 % of control

CCCCCCOC(CN)C(Cl)(Cl)Cl (configuration not stated)
inactive: dose: 12.5 mg/kg/injection, schedule: Q04DX003 (ip), vehicle: saline with Tween-80 107 % of control | dose: 25.0 mg/kg/injection, schedule: Q01DX009 (ip), vehicle: saline with Tween-80 116 % of control | dose: 25.0 mg/kg/injection, schedule: Q04DX003 (ip), vehicle: saline with Tween-80 109 % of control | dose: 50.0 mg/kg/injection, schedule: Q01DX009 (ip), vehicle: saline with Tween-80 97 % of control | dose: 50.0 mg/kg/injection, schedule: Q04DX003 (ip), vehicle: saline with Tween-80 102 % of control

O=[N+]([O-])c1ccc(/C=N/O)o1
inactive: dose: 10.0 mg/kg/injection, schedule: Q04DX002 (ip), vehicle: Klucel (hydroxypropylcellulose) (HPC) 102 % of control | dose: 20.0 mg/kg/injection, schedule: Q04DX002 (ip), vehicle: Klucel (hydroxypropylcellulose) (HPC) 117 % of control | dose: 40.0 mg/kg/injection, schedule: Q04DX002 (ip), vehicle: Klucel (hydroxypropylcellulose) (HPC) 104 % of control | dose: 50.0 mg/kg/injection, schedule: Q01DX001 (ip), vehicle: saline 111 % of control

O=C(CI)Nc1cccc(NC(=O)C(=O)O)c1
inactive: dose: 20.0 mg/kg/injection, schedule: Q04DX003 (ip), vehicle: Klucel (hydroxypropylcellulose) (HPC) 95 % of control | dose: 40.0 mg/kg/injection, schedule: Q04DX003 (ip), vehicle: Klucel (hydroxypropylcellulose) (HPC) 101 % of control

O=C(NC1CCCCC1)c1ccc(Cl)cc1
inactive: [10] 105 % of control | [7] 94 % of control | [11] 89 % of control | [8] 105 % of control | [12] 105 % of control | [9] 102 % of control

C=C(C)C1(CCCC)C(=O)NC(=O)NC1=O
inactive: dose: 75.0 mg/kg/injection, schedule: Q01DX001 (ip), vehicle: saline 104 % of control and 102 % of control | dose: 150.0 mg/kg/injection, schedule: Q01DX001 (ip), vehicle: saline 107 % of control and 100 % of control | dose: 300.0 mg/kg/injection, schedule: Q01DX001 (ip), vehicle: saline 102 % of control

C=CCn1c(-c2ccc(N(C)C)cc2)nc2c(Cl)ncnc21
inactive: dose: 5.0 mg/kg/injection, schedule: Q01DX009 (ip), vehicle: steriod suspending solution 97 % of control | dose: 9.0 mg/kg/injection, schedule: Q01DX009 (ip), vehicle: steriod suspending solution 98 % of control | dose: 14.0 mg/kg/injection, schedule: Q01DX009 (ip), vehicle: steriod suspending solution 102 % of control | [6] 95 % of control

Nc1cc(Nc2ccc(Cl)[nH]c2=S)nc(N)n1
inactive: [10] 90 % of control | [11] 93 % of control | [12] 92 % of control

O=c1[nH]c(=S)[nH]c2c1CP(=S)(c1ccccc1)CC2 (configuration not stated)
inactive: dose: 100.0 mg/kg/injection, schedule: Q04DX002 (ip), vehicle: saline with Tween-80 106 % of control | dose: 200.0 mg/kg/injection, schedule: Q04DX002 (ip), vehicle: saline with Tween-80 100 % of control | dose: 400.0 mg/kg/injection, schedule: Q04DX002 (ip), vehicle: saline with Tween-80 100 % of control

[Cl][Co][Cl].[NH-]CCC[NH-].[NH-]CCC[NH-]
inactive: [3] 109 % of control

CCCCCCCCCCCCCCCCC1(c2ccccc2)NC(=O)NC1=O (configuration not stated)
inactive: [7] 93 % of control | [8] 95 % of control | [9] 98 % of control

NCc1ccccc1[N+](=O)[O-]
inactive: [3] 104 % of control | [4] 104 % of control | [5] 102 % of control

Cc1cccc(Nc2cc(=O)[nH]c(=O)[nH]2)c1C
inactive: dose: 150.0 mg/kg/injection, schedule: Q01DX001 (ip), vehicle: saline with Tween-80 90 % of control | dose: 300.0 mg/kg/injection, schedule: Q01DX001 (ip), vehicle: saline with Tween-80 95 % of control
